Test results: paper PMC5448077, “Development of an orally available inhibitor of CLK1 for skipping a mutated dystrophin exon in Duchenne muscular dystrophy” (Scientific Reports, 2017)

Columns and labels:
Experiment in all cases: biochemical
IRR = molecular target: T1, IRR (Homo sapiens, UniProt P14616)
T1 construct: gene INSRR
In short: (§1)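 Human kinases phosphorylating kinase-specific synthetic peptides, assayed by mobility shift (MSA) or IMAP fluorescence polarization, in 20 mM HEPES pH 7.5, 0.01% Triton X-100, 2 mM DTT with substrate/ATP-metal. Reactions ran 1 or 5 h at room temperature; activity = P/(P + S) from product and substrate peak heights.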

CHK1 = molecular target: T2, CHK1 (Homo sapiens, UniProt O14757)
T2 construct: gene CHEK1
In short: as §1

PGK = molecular target: T3, PGK (Homo sapiens, UniProt Q13976)
T3 construct: gene PRKG1
In short: as §1

LYNb = molecular target: T4, LYNb (Homo sapiens, UniProt P07948)
T4 construct: gene LYN; isoform b
In short: as §1

RSK4 = molecular target: T5, RSK4 (Homo sapiens, UniProt Q9UK32)
T5 construct: gene RPS6KA6
In short: as §1

RET(Y791F) = RET(Y791F) (Homo sapiens, UniProt P07949, Y791F)
In short: as §1

PKD1 = molecular target: T6, PKD1 (Homo sapiens, UniProt Q15139)
T6 construct: gene PRKD1
In short: as §1

CK1δ = molecular target: T7, CK1δ (Homo sapiens, UniProt P48730)
T7 construct: gene CSNK1D
In short: as §1

ROS = molecular target: T8, ROS (Homo sapiens, UniProt P08922)
T8 construct: gene ROS1
In short: as §1

TSSK2 = TSSK2 (Homo sapiens, UniProt Q96PF2)
In short: as §1

AKT2 = AKT2 (Homo sapiens, UniProt P31751)
Chain of AKT2 (P31751 whole entry): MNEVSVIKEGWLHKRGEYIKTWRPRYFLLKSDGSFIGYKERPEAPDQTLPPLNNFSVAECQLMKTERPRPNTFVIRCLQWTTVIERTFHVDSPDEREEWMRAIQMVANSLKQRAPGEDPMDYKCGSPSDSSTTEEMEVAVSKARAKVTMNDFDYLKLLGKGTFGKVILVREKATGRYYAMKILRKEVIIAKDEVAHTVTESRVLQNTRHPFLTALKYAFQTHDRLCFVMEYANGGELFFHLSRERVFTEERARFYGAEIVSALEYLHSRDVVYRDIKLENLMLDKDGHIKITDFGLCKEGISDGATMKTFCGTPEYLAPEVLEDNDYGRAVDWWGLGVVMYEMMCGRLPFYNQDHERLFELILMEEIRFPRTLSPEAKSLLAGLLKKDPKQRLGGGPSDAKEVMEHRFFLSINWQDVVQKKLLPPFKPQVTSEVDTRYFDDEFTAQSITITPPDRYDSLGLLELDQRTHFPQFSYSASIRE
In short: as §1

AurA/TPX2 = molecular target: T9, AurA/TPX2 (Homo sapiens, UniProt O14965)
T9 construct: gene AURKA
In short: as §1

PDHK4 = molecular target: T10, PDHK4 (Homo sapiens, UniProt Q16654)
T10 construct: gene PDK4
In short: as §1

FES = FES (Homo sapiens, UniProt P07332)
In short: as §1

HIPK3 = HIPK3 (Homo sapiens, UniProt Q9H422)
In short: as §1

EPHA3 = EPHA3 (Homo sapiens, UniProt P29320)
Chain of EPHA3 (P29320 whole entry): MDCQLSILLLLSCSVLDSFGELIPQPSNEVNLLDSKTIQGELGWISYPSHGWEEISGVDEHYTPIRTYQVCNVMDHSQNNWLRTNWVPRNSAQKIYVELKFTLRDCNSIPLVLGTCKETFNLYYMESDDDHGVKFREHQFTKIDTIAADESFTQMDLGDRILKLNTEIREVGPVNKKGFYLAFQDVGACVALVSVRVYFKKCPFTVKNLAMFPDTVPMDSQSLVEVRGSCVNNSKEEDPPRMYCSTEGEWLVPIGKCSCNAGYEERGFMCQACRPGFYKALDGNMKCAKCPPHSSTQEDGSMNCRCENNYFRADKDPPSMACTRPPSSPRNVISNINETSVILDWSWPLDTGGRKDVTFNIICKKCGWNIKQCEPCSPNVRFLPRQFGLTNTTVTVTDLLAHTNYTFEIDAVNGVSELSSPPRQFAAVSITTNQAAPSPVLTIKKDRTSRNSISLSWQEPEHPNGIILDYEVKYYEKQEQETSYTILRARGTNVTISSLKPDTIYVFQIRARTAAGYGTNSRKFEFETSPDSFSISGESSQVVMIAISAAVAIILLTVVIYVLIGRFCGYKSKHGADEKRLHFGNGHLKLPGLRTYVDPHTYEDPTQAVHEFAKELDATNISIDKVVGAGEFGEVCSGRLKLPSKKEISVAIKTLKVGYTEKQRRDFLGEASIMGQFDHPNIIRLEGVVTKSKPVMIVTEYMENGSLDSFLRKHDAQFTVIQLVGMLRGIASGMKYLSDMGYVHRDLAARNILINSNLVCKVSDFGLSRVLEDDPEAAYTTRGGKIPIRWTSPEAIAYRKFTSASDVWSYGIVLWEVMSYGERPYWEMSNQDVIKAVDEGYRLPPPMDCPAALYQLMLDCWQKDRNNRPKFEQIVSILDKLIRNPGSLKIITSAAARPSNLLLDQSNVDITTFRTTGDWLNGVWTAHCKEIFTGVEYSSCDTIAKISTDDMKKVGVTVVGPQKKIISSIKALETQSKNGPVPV
In short: as §1

CaMK1δ = molecular target: T11, CaMK1δ (Homo sapiens, UniProt Q8IU85)
T11 construct: gene CAMK1D
In short: as §1

LYNa = molecular target: T12, LYNa (Homo sapiens, UniProt P07948)
T12 construct: gene LYN; isoform a
In short: as §1

FGFR4(V550E) = FGFR4(V550E) (Homo sapiens, UniProt P22455, V550E)
In short: as §1

PLK3 = PLK3 (Homo sapiens, UniProt Q9H4B4)
In short: as §1

EEF2K = EEF2K (Homo sapiens, UniProt O00418)
In short: as §1

ROCK1 = ROCK1 (Homo sapiens, UniProt Q13464)
Chain of ROCK1 (Q13464 whole entry): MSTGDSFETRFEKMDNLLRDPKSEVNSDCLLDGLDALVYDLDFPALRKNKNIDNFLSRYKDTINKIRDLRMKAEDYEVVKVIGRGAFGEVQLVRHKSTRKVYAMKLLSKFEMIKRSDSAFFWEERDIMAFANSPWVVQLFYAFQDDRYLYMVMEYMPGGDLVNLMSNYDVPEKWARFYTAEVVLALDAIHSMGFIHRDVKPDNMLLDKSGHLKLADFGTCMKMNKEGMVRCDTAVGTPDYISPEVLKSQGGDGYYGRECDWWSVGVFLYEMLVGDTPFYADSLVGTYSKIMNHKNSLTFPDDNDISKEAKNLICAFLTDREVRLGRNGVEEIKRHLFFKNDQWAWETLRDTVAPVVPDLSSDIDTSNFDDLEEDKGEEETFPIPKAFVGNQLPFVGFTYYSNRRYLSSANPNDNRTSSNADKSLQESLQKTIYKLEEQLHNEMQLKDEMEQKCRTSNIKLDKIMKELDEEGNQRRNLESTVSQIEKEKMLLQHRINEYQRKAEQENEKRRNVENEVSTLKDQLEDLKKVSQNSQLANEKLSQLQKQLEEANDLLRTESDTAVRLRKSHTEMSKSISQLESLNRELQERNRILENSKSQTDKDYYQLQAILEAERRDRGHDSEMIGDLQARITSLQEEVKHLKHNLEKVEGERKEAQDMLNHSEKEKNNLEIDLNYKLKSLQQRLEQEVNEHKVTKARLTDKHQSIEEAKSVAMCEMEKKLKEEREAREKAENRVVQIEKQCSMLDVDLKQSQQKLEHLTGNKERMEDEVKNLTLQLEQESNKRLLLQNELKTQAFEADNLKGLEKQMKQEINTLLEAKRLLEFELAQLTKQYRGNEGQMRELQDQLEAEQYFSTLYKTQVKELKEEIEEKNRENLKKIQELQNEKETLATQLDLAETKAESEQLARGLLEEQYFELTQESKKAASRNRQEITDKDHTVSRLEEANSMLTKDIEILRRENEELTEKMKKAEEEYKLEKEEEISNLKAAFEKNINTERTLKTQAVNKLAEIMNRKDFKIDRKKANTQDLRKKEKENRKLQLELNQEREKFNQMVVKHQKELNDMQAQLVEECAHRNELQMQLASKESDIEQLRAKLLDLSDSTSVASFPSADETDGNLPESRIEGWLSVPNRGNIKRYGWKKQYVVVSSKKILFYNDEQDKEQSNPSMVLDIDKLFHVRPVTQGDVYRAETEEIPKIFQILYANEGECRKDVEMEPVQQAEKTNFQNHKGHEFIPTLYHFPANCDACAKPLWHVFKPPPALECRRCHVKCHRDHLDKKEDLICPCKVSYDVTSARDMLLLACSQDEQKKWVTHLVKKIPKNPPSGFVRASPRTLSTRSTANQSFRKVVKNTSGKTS
In short: as §1

DYRK3 = DYRK3 (Homo sapiens, UniProt O43781)
In short: as §1

PDGFRα = molecular target: T13, PDGFRα (Homo sapiens, UniProt P16234)
T13 construct: gene PDGFRA
In short: as §1

PAK5 = PAK5 (Homo sapiens, UniProt Q9P286)
In short: as §1

ALK(L1196M) = ALK(L1196M) (Homo sapiens, UniProt Q9UM73, L1196M)
Chain of ALK(L1196M) (Q9UM73 whole entry L1196M): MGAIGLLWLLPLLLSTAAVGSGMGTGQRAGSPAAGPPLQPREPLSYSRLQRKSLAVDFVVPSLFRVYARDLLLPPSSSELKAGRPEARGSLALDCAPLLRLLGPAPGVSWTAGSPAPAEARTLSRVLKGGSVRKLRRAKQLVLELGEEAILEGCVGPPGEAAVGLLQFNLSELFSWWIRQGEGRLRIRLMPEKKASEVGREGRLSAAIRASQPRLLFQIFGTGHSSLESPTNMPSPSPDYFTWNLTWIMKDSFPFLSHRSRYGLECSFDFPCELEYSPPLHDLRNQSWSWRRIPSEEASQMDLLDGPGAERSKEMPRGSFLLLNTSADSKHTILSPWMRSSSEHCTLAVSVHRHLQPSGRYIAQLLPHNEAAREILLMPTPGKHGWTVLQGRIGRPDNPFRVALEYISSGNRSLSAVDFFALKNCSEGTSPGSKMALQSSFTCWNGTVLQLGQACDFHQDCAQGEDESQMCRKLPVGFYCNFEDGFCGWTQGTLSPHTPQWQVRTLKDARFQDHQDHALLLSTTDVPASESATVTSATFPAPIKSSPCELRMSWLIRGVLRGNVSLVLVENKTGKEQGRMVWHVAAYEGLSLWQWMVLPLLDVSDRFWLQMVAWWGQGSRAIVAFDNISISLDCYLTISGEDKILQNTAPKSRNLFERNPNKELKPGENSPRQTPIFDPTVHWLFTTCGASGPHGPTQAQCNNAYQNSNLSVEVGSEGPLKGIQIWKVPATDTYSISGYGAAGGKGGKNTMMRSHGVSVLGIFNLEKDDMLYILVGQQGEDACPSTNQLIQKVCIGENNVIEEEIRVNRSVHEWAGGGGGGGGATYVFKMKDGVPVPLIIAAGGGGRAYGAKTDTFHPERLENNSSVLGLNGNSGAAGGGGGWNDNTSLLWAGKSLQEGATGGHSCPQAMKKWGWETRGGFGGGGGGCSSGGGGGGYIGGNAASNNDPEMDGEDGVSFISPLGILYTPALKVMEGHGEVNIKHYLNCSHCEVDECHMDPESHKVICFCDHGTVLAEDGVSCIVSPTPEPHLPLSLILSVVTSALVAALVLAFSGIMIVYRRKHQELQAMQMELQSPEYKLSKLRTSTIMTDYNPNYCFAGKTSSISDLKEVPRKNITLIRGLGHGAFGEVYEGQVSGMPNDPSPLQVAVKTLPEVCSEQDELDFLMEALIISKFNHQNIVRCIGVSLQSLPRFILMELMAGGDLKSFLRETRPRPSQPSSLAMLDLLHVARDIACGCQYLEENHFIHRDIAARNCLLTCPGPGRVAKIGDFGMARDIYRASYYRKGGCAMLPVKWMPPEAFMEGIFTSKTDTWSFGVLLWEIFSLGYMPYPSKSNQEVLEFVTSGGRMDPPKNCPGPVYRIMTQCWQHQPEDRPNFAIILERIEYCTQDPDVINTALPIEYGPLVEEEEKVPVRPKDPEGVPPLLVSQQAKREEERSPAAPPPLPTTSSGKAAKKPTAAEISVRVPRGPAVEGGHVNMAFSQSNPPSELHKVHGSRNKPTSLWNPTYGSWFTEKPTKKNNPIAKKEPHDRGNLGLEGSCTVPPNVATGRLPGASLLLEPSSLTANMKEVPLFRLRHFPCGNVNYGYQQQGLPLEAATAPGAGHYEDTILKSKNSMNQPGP
In short: as §1

CGK2 = molecular target: T14, CGK2 (Homo sapiens, UniProt Q13237)
T14 construct: gene PRKG2
In short: as §1

p70S6Kβ = molecular target: T15, p70S6Kβ (Homo sapiens, UniProt Q9UBS0)
T15 construct: gene RPS6KB2
In short: as §1

MAPKAPK5 = MAPKAPK5 (Homo sapiens, UniProt Q8IW41)
In short: as §1

JNK3 = molecular target: T16, JNK3 (Homo sapiens, UniProt P53779)
T16 construct: gene MAPK10
T16 sequence (P53779 whole entry): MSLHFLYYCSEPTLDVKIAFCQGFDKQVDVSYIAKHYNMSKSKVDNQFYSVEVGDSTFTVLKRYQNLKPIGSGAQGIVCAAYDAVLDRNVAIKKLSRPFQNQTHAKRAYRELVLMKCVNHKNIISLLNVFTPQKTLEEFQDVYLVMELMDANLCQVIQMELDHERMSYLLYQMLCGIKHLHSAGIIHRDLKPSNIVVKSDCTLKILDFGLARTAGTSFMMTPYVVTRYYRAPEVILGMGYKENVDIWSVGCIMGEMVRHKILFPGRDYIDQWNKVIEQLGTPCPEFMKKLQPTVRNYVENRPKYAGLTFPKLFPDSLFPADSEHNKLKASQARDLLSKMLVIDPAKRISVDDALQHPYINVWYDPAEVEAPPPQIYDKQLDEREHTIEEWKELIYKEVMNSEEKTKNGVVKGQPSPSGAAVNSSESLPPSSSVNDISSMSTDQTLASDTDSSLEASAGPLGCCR
In short: as §1

CK2α1/β = molecular target: T17, CK2α1/β (Homo sapiens, UniProt P68400)
T17 construct: gene CSNK2A1
In short: as §1

c1cc(-c2ccc3[nH]ncc3c2)ccn1 [TG693, 5-(4-pyridinyl)-1H-indazole]
inhibition at 1 µM (IRR): 3% | inhibition at 1 µM (CHK1): 1.7% | inhibition at 1 µM (PGK): 11% | inhibition at 1 µM (LYNb): 0.8% | inhibition at 1 µM (RSK4): -6.5% | inhibition at 1 µM (RET(Y791F)): 3% | inhibition at 1 µM (PKD1): -15.8% | inhibition at 1 µM (CK1δ): 21.3% | inhibition at 1 µM (ROS): 8.1% | inhibition at 1 µM (TSSK2): -0.1% | inhibition at 1 µM (AKT2): -3% | inhibition at 1 µM (AurA/TPX2): 8.5% | inhibition at 1 µM (PDHK4): 3.1% | inhibition at 1 µM (FES): 1.3% | inhibition at 1 µM (HIPK3): -0.7% | inhibition at 1 µM (EPHA3): 0.4% | inhibition at 1 µM (CaMK1δ): 7% | inhibition at 1 µM (LYNa): 0.1% | inhibition at 1 µM (FGFR4(V550E)): -4.1% | inhibition at 1 µM (PLK3): 1.7% | inhibition at 1 µM (EEF2K): -15.2% | inhibition at 1 µM (ROCK1): 27.6% | inhibition at 1 µM (DYRK3): 64% | inhibition at 1 µM (PDGFRα): 6.2% | inhibition at 1 µM (PAK5): -14% | inhibition at 1 µM (ALK(L1196M)): 2.6% | inhibition at 1 µM (CGK2): 38.5% | inhibition at 1 µM (p70S6Kβ): 18.7% | inhibition at 1 µM (MAPKAPK5): 2.6% | inhibition at 1 µM (JNK3): -4.4% | inhibition at 1 µM (CK2α1/β): 3.5%
